This is an account of results in patent US10150760B2, “Compounds for use in preparing heterocyclic triazole agonists of the APJ receptor” (AMGEN INC., priority 2016, dated 2018).

This test deals with human APJ receptor (Homo sapiens (Human), UniProt P35414). Briefly: [35S]GTPγS binding assay on membranes from CHO cells stably expressing human APJ receptor. Type of test: biochemical. The note with it: read-out: Activity hAPJ SPA EC50 IP. In outline: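 Membranes from CHO cells stably expressing human APJ incubated with ligand, 0.2 nM [35S]GTPγS and WGA SPA beads in HEPES pH 7.5 with 5 mM MgCl2, 200 mM NaCl, 3 μM GDP, 90 min at RT. Nonspecific binding defined with 100 μM GTPγS; EC50 by non-linear regression.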
Chain of human APJ receptor (P35414 whole entry): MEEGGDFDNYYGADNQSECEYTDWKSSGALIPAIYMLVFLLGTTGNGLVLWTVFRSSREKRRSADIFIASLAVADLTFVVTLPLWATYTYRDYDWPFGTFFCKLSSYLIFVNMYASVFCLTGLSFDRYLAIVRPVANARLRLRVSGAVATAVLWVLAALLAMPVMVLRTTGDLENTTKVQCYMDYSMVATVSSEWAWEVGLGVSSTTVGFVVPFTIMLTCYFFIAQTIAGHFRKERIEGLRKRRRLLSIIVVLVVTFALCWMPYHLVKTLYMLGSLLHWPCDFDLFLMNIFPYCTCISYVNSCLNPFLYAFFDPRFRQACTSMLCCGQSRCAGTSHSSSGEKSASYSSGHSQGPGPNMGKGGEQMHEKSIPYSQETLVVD
For orientation: Binding of GTPγS marks nucleotide exchange on a G protein.

In the case of `COc1cccc(OC)c1-n1c(NS(=O)(=O)[C@@H](C)[C@H](OC)c2ncc(Cl)cn2)nnc1[C@H]1CCC(C)(C)O1` (single isomer, unassigned) [Example 108.0, (1R,2S)-1-(5-chloropyrimidin-2-yl)-N-(4-(2,6-dimethoxyphenyl)-5-((S)-5,5-dimethyltetrahydrofuran-2-yl)-4H-1,2,4-triazol-3-yl)-1-methoxypropane-2-sulfonamide or (1R,2S)-1-(5-chloropyrimidin-2-yl)-N-(4-(2,6-dimethoxyphenyl)-5-((R)-5,5-dimethyltetrahydrofuran-2-yl)-4H-1,2,4-triazol-3-yl)-1-methoxypropane-2-sulfonamide], the EC50 (usually the concentration giving half of the maximal effect) was 25 nM.
Consider `COc1cccc(OC)c1-n1c(NS(=O)(=O)[C@@H](C)[C@H](OC)c2ncc(Cl)cn2)nnc1[C@H]1CCC(C)(C)O1` (single isomer, unassigned) [Example 109.0, (1R,2S)-1-(5-chloropyrimidin-2-yl)-N-(4-(2,6-dimethoxyphenyl)-5-((S)-5,5-dimethyltetrahydrofuran-2-yl)-4H-1,2,4-triazol-3-yl)-1-methoxypropane-2-sulfonamide or (1R,2S)-1-(5-chloropyrimidin-2-yl)-N-(4-(2,6-dimethoxyphenyl)-5-((R)-5,5-dimethyltetrahydrofuran-2-yl)-4H-1,2,4-triazol-3-yl)-1-methoxypropane-2-sulfonamide], for which the EC50 worked out at 0.16 nM.
With `CO[C@H](c1ncc(Cl)cn1)[C@H](C)S(=O)(=O)Nc1nnc([C@H]2CCCO2)n1C1(C)CC1` (single isomer, unassigned) [Example 110.0, (1R,2S)-1-(5-chloropyrimidin-2-yl)-1-methoxy-N-(4-(1-methylcyclopropyl)-5-((S)-tetrahydrofuran-2-yl)-4H-1,2,4-triazol-3-yl)propane-2-sulfonamide or (1R,2S)-1-(5-chloropyrimidin-2-yl)-1-methoxy-N-(4-(1-methylcyclopropyl)-5-((R)-tetrahydrofuran-2-yl)-4H-1,2,4-triazol-3-yl)propane-2-sulfonamide] the figure was 30 nM; with `CO[C@H](c1ncc(Cl)cn1)[C@H](C)S(=O)(=O)Nc1nnc([C@H]2CCCO2)n1C1(C)CC1` (single isomer, unassigned) [Example 111.0, (1R,2S)-1-(5-chloropyrimidin-2-yl)-1-methoxy-N-(4-(1-methylcyclopropyl)-5-((S)-tetrahydrofuran-2-yl)-4H-1,2,4-triazol-3-yl)propane-2-sulfonamide or (1R,2S)-1-(5-chloropyrimidin-2-yl)-1-methoxy-N-(4-(1-methylcyclopropyl)-5-((R)-tetrahydrofuran-2-yl)-4H-1,2,4-triazol-3-yl)propane-2-sulfonamide], 240 nM; with `CO[C@H](c1ncc(Cl)cn1)[C@H](C)S(=O)(=O)Nc1nnc([C@H]2CCCCO2)n1C1(C)CC1` (single isomer, unassigned) [Example 113.0, (1R,2S)-1-(5-chloropyrimidin-2-yl)-1-methoxy-N-(4-(1-methylcyclopropyl)-5-((S)-tetrahydro-2H-pyran-2-yl)-4H-1,2,4-triazol-3-yl)propane-2-sulfonamide or (1R,2S)-1-(5-chloropyrimidin-2-yl)-1-methoxy-N-(4-(1-methylcyclopropyl)-5-((R)-tetrahydro-2H-pyran-2-yl)-4H-1,2,4-triazol-3-yl)propane-2-sulfonamide], 260 nM.
With `COc1cccc(OC)c1-n1c(NS(=O)(=O)[C@@H](C)[C@H](OC)c2ncc(Cl)cn2)nnc1[C@H]1CCO[C@@H]1C` (single isomer, unassigned) [Example 114.0, (1R,2S)-1-(5-chloropyrimidin-2-yl)-N-(4-(2,6-dimethoxyphenyl)-5-((2R,3R)-2-methyltetrahydrofuran-3-yl)-4H-1,2,4-triazol-3-yl)-1-methoxypropane-2-sulfonamide or (1R,2S)-1-(5-chloropyrimidin-2-yl)-N-(4-(2,6-dimethoxyphenyl)-5-((2S,3S)-2-methyltetrahydrofuran-3-yl)-4H-1,2,4-triazol-3-yl)-1-methoxypropane-2-sulfonamide], the EC50 came out at 110 nM.
On to `COc1cccc(OC)c1-n1c(NS(=O)(=O)[C@@H](C)[C@H](OC)c2ncc(Cl)cn2)nnc1[C@H]1CCO[C@@H]1C` (single isomer, unassigned) [Example 115.0, (1R,2S)-1-(5-chloropyrimidin-2-yl)-N-(4-(2,6-dimethoxyphenyl)-5-((2R,3S)-2-methyltetrahydrofuran-3-yl)-4H-1,2,4-triazol-3-yl)-1-methoxypropane-2-sulfonamide or (1R,2S)-1-(5-chloropyrimidin-2-yl)-N-(4-(2,6-dimethoxyphenyl)-5-((2S,3R)-2-methyltetrahydrofuran-3-yl)-4H-1,2,4-triazol-3-yl)-1-methoxypropane-2-sulfonamide], for which the EC50 was 210 nM.
With `COc1cccc(OC)c1-n1c(NS(=O)(=O)[C@@H](C)[C@H](OC)c2ncc(Cl)cn2)nnc1[C@H]1CCO[C@H]1C` (single isomer, unassigned) [Example 116.0, (1R,2S)-1-(5-chloropyrimidin-2-yl)-N-(4-(2,6-dimethoxyphenyl)-5-((2R,3S)-2-methyltetrahydrofuran-3-yl)-4H-1,2,4-triazol-3-yl)-1-methoxypropane-2-sulfonamide or (1R,2S)-1-(5-chloropyrimidin-2-yl)-N-(4-(2,6-dimethoxyphenyl)-5-((2S,3R)-2-methyltetrahydrofuran-3-yl)-4H-1,2,4-triazol-3-yl)-1-methoxypropane-2-sulfonamide] the figure was 190 nM.
With `COc1cccc(OC)c1-n1c(NS(=O)(=O)[C@@H](C)[C@H](C)c2ncc(Cl)cn2)nnc1[C@H]1CCO[C@@H]1C` (single isomer, unassigned) [Example 117.0, (2S,3R)-3-(5-chloropyrimidin-2-yl)-N-(4-(2,6-dimethoxyphenyl)-5-((2R,3R)-2-methyltetrahydrofuran-3-yl)-4H-1,2,4-triazol-3-yl)butane-2-sulfonamide or (2S,3R)-3-(5-chloropyrimidin-2-yl)-N-(4-(2,6-dimethoxyphenyl)-5-((2S,3S)-2-methyltetrahydrofuran-3-yl)-4H-1,2,4-triazol-3-yl)butane-2-sulfonamide] the figure was 49 nM; with `COc1cccc(OC)c1-n1c(NS(=O)(=O)[C@@H](C)[C@H](C)c2ncc(Cl)cn2)nnc1[C@@H]1CCO[C@@H]1C` (single isomer, unassigned) [Example 118.0, (2S,3R)-3-(5-chloropyrimidin-2-yl)-N-(4-(2,6-dimethoxyphenyl)-5-((2R,3S)-2-methyltetrahydrofuran-3-yl)-4H-1,2,4-triazol-3-yl)butane-2-sulfonamide or (2S,3R)-3-(5-chloropyrimidin-2-yl)-N-(4-(2,6-dimethoxyphenyl)-5-((2S,3R)-2-methyltetrahydrofuran-3-yl)-4H-1,2,4-triazol-3-yl)butane-2-sulfonamide], 270 nM.
As for `COc1cccc(OC)c1-n1c(NS(=O)(=O)[C@@H](C)[C@H](C)c2ncc(Cl)cn2)nnc1[C@@H]1CCO[C@@H]1C` (single isomer, unassigned) [Example 119.0, (2S,3R)-3-(5-chloropyrimidin-2-yl)-N-(4-(2,6-dimethoxyphenyl)-5-((2R,3S)-2-methyltetrahydrofuran-3-yl)-4H-1,2,4-triazol-3-yl)butane-2-sulfonamide or (2S,3R)-3-(5-chloropyrimidin-2-yl)-N-(4-(2,6-dimethoxyphenyl)-5-((2S,3R)-2-methyltetrahydrofuran-3-yl)-4H-1,2,4-triazol-3-yl)butane-2-sulfonamide], the EC50 came to 160 nM.
For the compound `COc1cccc(OC)c1-n1c(NS(=O)(=O)[C@@H](C)[C@H](C)c2ncc(C)cn2)nnc1[C@H]1CCO[C@@H]1C` (single isomer, unassigned) [Example 120.0, (2S,3R)-N-(4-(2,6-dimethoxyphenyl)-5-((2S,3S)-2-methyltetrahydrofuran-3-yl)-4H-1,2,4-triazol-3-yl)-3-(5-methylpyrimidin-2-yl)butane-2-sulfonamide or (2S,3R)-N-(4-(2,6-dimethoxyphenyl)-5-((2R,3R)-2-methyltetrahydrofuran-3-yl)-4H-1,2,4-triazol-3-yl)-3-(5-methylpyrimidin-2-yl)butane-2-sulfonamide], the EC50 turned out to be 270 nM.
Consider `COc1cccc(OC)c1-n1c(NS(=O)(=O)[C@@H](C)[C@H](C)c2ncc(C)cn2)nnc1[C@@H]1CCO[C@@H]1C` (single isomer, unassigned) [Example 121.0, (2S,3R)-N-(4-(2,6-dimethoxyphenyl)-5-((2R,3S)-2-methyltetrahydrofuran-3-yl)-4H-1,2,4-triazol-3-yl)-3-(5-methylpyrimidin-2-yl)butane-2-sulfonamide or (2S,3R)-N-(4-(2,6-dimethoxyphenyl)-5-((2S,3R)-2-methyltetrahydrofuran-3-yl)-4H-1,2,4-triazol-3-yl)-3-(5-methylpyrimidin-2-yl)butane-2-sulfonamide], for which the EC50 is 880 nM.
With `COc1cccc(OC)c1-n1c(NS(=O)(=O)[C@@H](C)[C@H](C)c2ncc(C)cn2)nnc1[C@H]1CCO[C@@H]1C` (single isomer, unassigned) [Example 122.0, (2S,3R)-N-(4-(2,6-dimethoxyphenyl)-5-((2S,3S)-2-methyltetrahydrofuran-3-yl)-4H-1,2,4-triazol-3-yl)-3-(5-methylpyrimidin-2-yl)butane-2-sulfonamide or (2S,3R)-N-(4-(2,6-dimethoxyphenyl)-5-((2R,3R)-2-methyltetrahydrofuran-3-yl)-4H-1,2,4-triazol-3-yl)-3-(5-methylpyrimidin-2-yl)butane-2-sulfonamide] the figure was 930 nM.
